System: ApoA-I mRNA
Assay: ApoA-I mRNA quantitation in HepG2 cells (real-time PCR)
Format: cell-based
Design: key: Active: An active compound is one that causes a >15% increase in ApoA-I mRNA at a concentration less than or equal to 100 uM
Conditions: concentration less than or equal to 100 uM, fold induction relative to DMSO control
Description: At time of harvesting, the spent media was removed from the HepG2 cells and immediately placed on ice (for immediate use) or at −80° C. (for future use) in ApoA-I and albumin ELISAs. The cells remaining in the plate wells were rinsed in 200 μL PBS. PBS was carefully removed to avoid removing any loosely attached cells.
Once the PBS was removed, 85 μL cell lysis solution was added to the cells in each well and incubated for 5-10 min at room temperature, to allow for complete cell lysis and detachment. mRNA was then prepared using the “mRNA Catcher PLUS plate” from Invitrogen, according to the protocol supplied. After the last wash, as much wash buffer as possible was aspirated without allowing the wells to dry. Elution Buffer (E3, 80 μL) was then added to each well. mRNA was then eluted by incubating the mRNA Catcher PLUS plate with Elution Buffer for 5 min at 68° C. and then immediately placing the plate on ice.
The eluted mRNA was isolated and then used in a one-step real-time […]-PCR reaction, using components of the Ultra Sense Kit together with Applied Biosystems primer-probe mixes. Real-time PCR data was analyzed, using the Ct values, to determine the fold induction of each unknown sample, relative to the control (that is, relative to the control for each independent DMSO concentration).
The following compounds of Formula I were evaluated in this assay. An active compound is one that causes a >15% increase in ApoA-I mRNA at a concentration less than or equal to 100 uM.

Compound	Effect on ApoA-I mRNA levels
COc1cc2nc(-c3cc(C)c(OCC(N)=O)c(C)c3)[nH]c(=O)c2cc1OC [2-(4-(6,7-dimethoxy-4-oxo-3,4-dihydroquinazolin-2-yl)-2,6-dimethylphenoxy)acetamide]	Active
CCN1CCN(Cc2ccc(-c3nc4cc(OC)cc(OC)c4c(=O)[nH]3)cc2)CC1 [2-(4-((4-ethylpiperazin-1-yl)methyl)phenyl)-5,7-dimethoxyquinazolin-4(3H)-one]	Active
COc1cc(OC)c2c(=O)[nH]c(-c3cc(C)c(OCc4ccccc4)c(C)c3)nc2c1 [2-(4-(benzyloxy)-3,5-dimethylphenyl)-5,7-dimethoxyquinazolin-4(3H)-one]	Active
COc1cc(OC)c2c(=O)[nH]c(-c3ccc(N(CCO)CCO)cc3)nc2n1 [2-(4-(bis(2-hydroxyethyl)amino)phenyl)-5,7-dimethoxypyrido[2,3-d]pyrimidin-4(3H)-one]	Active
COc1cc(OC)c2c(=O)[nH]c(-c3ccc(N(CCO)CCO)cc3)nc2c1 [2-(4-(bis(2-hydroxyethyl)amino)phenyl)-5,7-dimethoxyquinazolin-4(3H)-one]	Active
COc1cc2nc(-c3ccc(N(CCO)CCO)cc3)[nH]c(=O)c2cc1OC [2-(4-(bis(2-hydroxyethyl)amino)phenyl)-6,7-dimethoxyquinazolin-4(3H)-one]	Active
O=c1[nH]c(-c2ccc(N(CCO)CCO)cc2)nc2ccccc12 [2-(4-(bis(2-hydroxyethyl)amino)phenyl)quinazolin-4(3H)-one]	Active
COc1cc(OC)c2c(=O)[nH]c(-c3ccc(N(C)C)c4ccccc34)nc2c1 [2-(4-(dimethylamino)naphthalene-1-yl)-5,7-dimethoxyquinazolin-4(3H)-one]	Active
CN(C)c1ccc(-c2nc3ccccc3c(=O)[nH]2)c2ccccc12 [2-(4-(dimethylamino)naphthalene-1-yl)quinazolin-4(3H)-one]	Active
COc1cc(OC)c2c(=O)[nH]c(-c3cc(C)c(N)c(C)c3)nc2c1 [2-(4-amino-3,5-dimethylphenyl)-5,7-dimethoxyquinazolin-4(3H)-one]	Active
COc1cc(OC)c2c(=O)nc(-c3cc(C)c(O)c(C)c3)n(C)c2c1 [2-(4-hydroxy-3,5-dimethylphenyl)-5,7-dimethoxy-1-methylquinazolin-4(1H)-one]	Active
COc1cc2nc(-c3cc(C)c(O)c(C)c3)[nH]c(=O)c2c(OC)c1CN1CCOCC1 [2-(4-hydroxy-3,5-dimethylphenyl)-5,7-dimethoxy-6-(morpholinomethyl)quinazolin-4(3H)-one]	Active
COc1cc(OC)c2c(=O)[nH]c(-c3cc(C)c(O)c(C)c3)nc2n1 [2-(4-hydroxy-3,5-dimethylphenyl)-5,7-dimethoxypyrido[2,3-d]pyrimidin-4(3H)-one]	Active
COc1cc(OC)c2c(=O)[nH]c(-c3cc(C)c(O)c(C)c3)nc2c1 [2-(4-hydroxy-3,5-dimethylphenyl)-5,7-dimethoxyquinazolin-4(3H)-one]	Active
Cc1cc(-c2nc3ccc(CN4CCOCC4)cc3c(=O)[nH]2)cc(C)c1O [2-(4-hydroxy-3,5-dimethylphenyl)-6-(morpholinomethyl)quinazolin-4(3H)-one]	Active
COc1cc(OC)c2c(=O)[nH]c(-c3ccc(O)c(CCO)c3)nc2c1 [2-(4-hydroxy-3-(2-hydroxyethyl)phenyl)-5,7-dimethoxyquinazolin-4(3H)-one]	Active
COc1cc(OC)c2c(=O)[nH]c(-c3ccc(O)c(OC)c3)nc2c1 [2-(4-hydroxy-3-methoxyphenyl)-5,7-dimethoxyquinazolin-4(3H)-one]	Active
COc1cc(OC)c2c(=O)[nH]c(-c3ccc(O)c(C)c3)nc2c1 [2-(4-hydroxy-3-methylphenyl)-5,7-dimethoxyquinazolin-4(3H)-one]	Active
COc1cc(OC)c2c(=O)[nH]c(-c3ccc(O)cc3)nc2c1 [2-(4-hydroxyphenyl)-5,7-dimethoxyquinazolin-4(3H)-one]	Active
COc1cc(O)nc2cc(-c3cc(C)c(O)c(C)c3)[nH]c(=O)c12 [2-hydroxy-7-(4-hydroxy-3,5-dimethylphenyl)-4-methoxy-1,6-naphthyridin-5(6H)-one]	Active
COc1cc(OC)c2c(=O)[nH]c(-c3cc(C)c(OCCNC(=O)N(C)C)c(C)c3)nc2c1 [3-(2-(4-(5,7-dimethoxy-4-oxo-3,4-dihydroquinazolin-2-yl)-2,6-dimethylphenoxy)ethyl)-1,1-dimethylurea]	Active

Compound	Effect on ApoA-I mRNA levels
COc1cc(OC)c2c(=O)[nH]c(-c3cc(C)c(OCCN4CCN(C)CC4)c(C)c3)cc2c1 [3-(3,5-dimethyl-4-(2-(4-methylpiperazin-1-yl)ethoxy)phenyl)-6,8-dimethoxyisoquinolin-1(2H)-one]	Active
COc1cc(OC)c2c(=O)[nH]c(-c3cc(C)c(OCCN4CCOCC4)c(C)c3)cc2c1 [3-(3,5-dimethyl-4-(2-morpholinoethoxy)phenyl)-6,8-dimethoxyisoquinolin-1(2H)-one]	Active
COc1cccc2c(=O)[nH]c(-c3ccc(O)c(F)c3)cc12 [3-(3-fluoro-4-hydroxyphenyl)-5-methoxyisoquinolin-1(2H)-one]	Inactive
COc1cc(OC)c2c(=O)[nH]c(-c3cc(C)c(OCCN(C)C)c(C)c3)cc2c1 [3-(4-(2-(dimethylamino)ethoxy)-3,5-dimethylphenyl)-6,8-dimethoxyisoquinolin-1(2H)-one]	Active
COc1cc(OC)c2c(=O)[nH]c(-c3cc(C)c(OCC(C)(C)O)c(C)c3)cc2c1 [3-(4-(2-hydroxy-2-methylpropoxy)-3,5-dimethylphenyl)-6,8-dimethoxyisoquinolin-1(2H)-one]	Active
COc1cc(OC)c2c(=O)[nH]c(-c3cc(C)c(OCCO)c(C)c3)cc2c1 [3-(4-(2-hydroxyethoxy)-3,5-dimethylphenyl)-6,8-dimethoxyisoquinolin-1(2H)-one]	Active
COc1cc(OC)c2c(=O)[nH]c(-c3ccc(CCC(=O)O)cc3)nc2c1 [3-(4-(5,7-dimethoxy-4-oxo-3,4-dihydroquinazolin-2-yl)phenyl)propanoic acid]	Active
O=c1[nH]c(-c2ccc(O)cc2)cc2ccccc12 [3-(4-Hydroxyphenyl)-2H-isoquinolin-1-one]	Active
COc1cc2cc(-c3cc(C)c(O)c(C)c3)n(C)c(=O)c2c(OC)c1C [3-(4-hydroxy-3,5-dimethylphenyl)-6,8-dimethoxy-2,7-dimethylisoquinolin-1(2H)-one]	Active
COc1cc2cc(-c3cc(C)c(O)c(C)c3)n(C)c(=O)c2c(OC)c1CN1CCOCC1 [3-(4-hydroxy-3,5-dimethylphenyl)-6,8-dimethoxy-2-methyl-7-(morpholinomethyl) isoquinolin-1(2H)-one]	Active
COc1cc(OC)c2c(=O)n(C)c(-c3cc(C)c(O)c(C)c3)cc2c1 [3-(4-hydroxy-3,5-dimethylphenyl)-6,8-dimethoxy-2-methylisoquinolin-1(2H)-one]	Active
COc1cc2cc(-c3cc(C)c(O)c(C)c3)[nH]c(=O)c2c(OC)c1CN1CCOCC1 [3-(4-hydroxy-3,5-dimethylphenyl)-6,8-dimethoxy-7-(morpholinomethyl)isoquinolin-1(2H)-one]	Active
COc1cc(OC)c2c(=O)[nH]c(-c3cc(C)c(O)c(C)c3)cc2c1 [3-(4-hydroxy-3,5-dimethylphenyl)-6,8-dimethoxyisoquinolin-1(2H)-one]	Active
Cc1cc(-c2cc3ccc(CN4CCOCC4)cc3c(=O)[nH]2)cc(C)c1O [3-(4-hydroxy-3,5-dimethylphenyl)-7-(morpholinomethyl)isoquinolin-1(2H)-one]	Active
COc1cc(OC)c2c(=O)[nH]c(-c3ccc(O)cc3)cc2c1 [3-(4-hydroxyphenyl)-6,8-dimethoxyisoquinolin-1(2H)-one]	Active
Oc1ccc(-c2cc3ncccc3cn2)cc1 [4-(1,6-naphthyridin-7-yl)phenol]	Active
N=C(N)NCCCC(N)C(=O)Oc1ccc(-c2cc3ccccc3c(=O)[nH]2)cc1 (centres unmarked) [4-(1-Oxo-1,2-dihydroisoquinolin-3-yl)phenyl 2-amino-5-guanidinopentanoate]	Active
COc1cc(OC)c2cnc(-c3cc(C)c(OCCN4CCOCC4)c(C)c3)cc2c1 [4-(2-(4-(6,8-dimethoxyisoquinolin-3-yl)-2,6-dimethylphenoxy)ethyl)morpholine]	Active
CCOc1nc(-c2cc(C)c(O)c(C)c2)nc2cc(OC)cc(OC)c12 [4-(4-ethoxy-5,7-dimethoxyquinazolin-2-yl)-2,6-dimethylphenol]	Inactive
COc1cc(OC)c2cnc(-c3cc(C)c(O)c(C)c3)cc2c1 [4-(6,8-dimethoxyisoquinolin-3-yl)-2,6-dimethylphenol]	Active

From US20160346291A1, “COMPOSITIONS AND THERAPEUTIC METHODS FOR ACCELERATED PLAQUE REGRESSION” (Resverlogix Corp, priority 2013, published 2016)
